Measured values: patent publication US20230115176A1 (Ra Pharmaceuticals, Inc., priority 2019, published 2023)
In brackets after ≈: the same amount, converted by molar mass.

molecular target: purified human C5 (Homo sapiens, UniProt P01031); assay: Red blood cell (RBC) hemolysis assay, optical, absorbance 412 nm (Example 10, Table 19); format: cell-based; settings: antibody-sensitized sheep erythrocytes, […] human C5 depleted sera, 0.5 nM purified human C5, absorbance 412 nm; read-out: RBC Hemolysis IC50
Sequence (P01031 19-1676): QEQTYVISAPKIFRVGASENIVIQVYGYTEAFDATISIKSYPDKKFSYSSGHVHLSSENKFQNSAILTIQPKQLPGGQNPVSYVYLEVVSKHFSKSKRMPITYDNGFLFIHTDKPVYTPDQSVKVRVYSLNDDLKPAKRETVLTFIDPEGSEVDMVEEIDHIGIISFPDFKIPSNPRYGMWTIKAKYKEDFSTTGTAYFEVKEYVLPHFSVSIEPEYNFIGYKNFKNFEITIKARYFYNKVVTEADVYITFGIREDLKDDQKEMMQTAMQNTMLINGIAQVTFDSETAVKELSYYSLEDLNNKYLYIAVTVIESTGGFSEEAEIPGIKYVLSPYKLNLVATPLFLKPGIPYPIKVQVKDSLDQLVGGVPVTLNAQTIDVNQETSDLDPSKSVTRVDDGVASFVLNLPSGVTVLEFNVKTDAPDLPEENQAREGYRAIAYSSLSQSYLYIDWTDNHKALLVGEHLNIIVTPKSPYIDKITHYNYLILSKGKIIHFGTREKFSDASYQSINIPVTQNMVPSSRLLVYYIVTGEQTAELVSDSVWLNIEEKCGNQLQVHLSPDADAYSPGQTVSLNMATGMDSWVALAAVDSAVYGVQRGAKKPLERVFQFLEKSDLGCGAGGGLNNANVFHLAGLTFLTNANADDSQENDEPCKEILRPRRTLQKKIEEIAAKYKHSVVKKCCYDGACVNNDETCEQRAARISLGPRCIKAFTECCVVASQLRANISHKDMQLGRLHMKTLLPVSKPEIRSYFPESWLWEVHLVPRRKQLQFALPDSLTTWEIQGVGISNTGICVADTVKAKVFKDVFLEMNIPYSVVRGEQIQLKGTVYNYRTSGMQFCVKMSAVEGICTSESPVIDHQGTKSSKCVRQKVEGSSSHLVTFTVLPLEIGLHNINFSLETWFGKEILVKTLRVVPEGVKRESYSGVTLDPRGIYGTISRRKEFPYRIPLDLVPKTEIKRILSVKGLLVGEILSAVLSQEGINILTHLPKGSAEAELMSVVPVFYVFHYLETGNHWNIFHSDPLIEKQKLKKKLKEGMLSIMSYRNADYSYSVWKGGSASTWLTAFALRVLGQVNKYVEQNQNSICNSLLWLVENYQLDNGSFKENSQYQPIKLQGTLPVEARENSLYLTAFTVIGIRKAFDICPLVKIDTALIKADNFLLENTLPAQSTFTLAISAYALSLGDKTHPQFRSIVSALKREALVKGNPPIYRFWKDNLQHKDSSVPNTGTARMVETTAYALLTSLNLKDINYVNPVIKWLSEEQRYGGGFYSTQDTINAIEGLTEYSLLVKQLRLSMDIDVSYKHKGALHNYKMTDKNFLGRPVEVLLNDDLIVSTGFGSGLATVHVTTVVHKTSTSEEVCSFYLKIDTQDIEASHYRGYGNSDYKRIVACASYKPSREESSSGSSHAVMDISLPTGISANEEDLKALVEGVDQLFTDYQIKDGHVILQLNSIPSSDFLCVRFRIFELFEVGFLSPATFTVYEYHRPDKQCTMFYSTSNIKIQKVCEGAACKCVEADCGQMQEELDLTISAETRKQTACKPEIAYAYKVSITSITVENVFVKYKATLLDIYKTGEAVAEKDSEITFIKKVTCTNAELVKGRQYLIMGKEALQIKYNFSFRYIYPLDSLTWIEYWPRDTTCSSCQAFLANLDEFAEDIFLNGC

| Compound | IC50 [nM] |
| --- | --- |
| COc1ccc(CNC(=O)Nc2ccc(OC)c(OCCCC(C)C)c2)cn1 [Compound C5INH-0498] | 4640 |
| COc1ccc(NC(=O)NC(C(=O)O)c2cccc(OC)c2O)cc1OCCCC(C)C (stereo not drawn) [Compound C5INH-0501] | 468 |
| COc1ccc(NCCCN2CCOCC2)cc1CNC(=O)Nc1ccc(OC)c(OCCCC(C)C)c1 [Compound C5INH-0534] | 1110 |
| COc1ccc(NC(=O)N[C@@H](CO)c2ccccc2)cc1C(F)CCCC(C)C (stereo partly drawn) [Compound C5INH-0432] | 417 |
| COc1ccc(NC(=O)NCc2ccnc3c2ccn3CC(=O)N(C)C)cc1OCCCC(C)C [Compound C5INH-0538] | 62.1 |

molecular target: T1, Human C5 (Homo sapiens, UniProt P01031); assay: Surface plasmon resonance (SPR), immobilized human C5 (Example 9, Table 18); format: binding; settings: immobilized human C5, equilibrium dissociation constant; read-out: SPR C5 EQ KD
T1 construct: purchased Complement Technology
T1 sequence (P01031 19-1676): as above
Excerpt: Morrison and Boyd in “Organic Chemistry”, 6th edition, Prentice Hall (1992)] and validated for proper structure by mass spectrometry.

| Compound | Kd [nM] |
| --- | --- |
| COc1ccc(CNC(=O)Nc2ccc(OC)c(OCCCC(C)C)c2)cn1 [Compound C5INH-0498] | 1480 |
| COc1ccc(NC(=O)NC(C(=O)O)c2cccc(OC)c2O)cc1OCCCC(C)C (stereo not drawn) [Compound C5INH-0501] | 330 |
| COc1ccc(NCCCN2CCOCC2)cc1CNC(=O)Nc1ccc(OC)c(OCCCC(C)C)c1 [Compound C5INH-0534] | 260 |
| COc1ccc(NC(=O)N[C@@H](CO)c2ccccc2)cc1C(F)CCCC(C)C (stereo partly drawn) [Compound C5INH-0432] | 530 |
| COc1ccc(NC(=O)NCc2ccnc3c2ccn3CC(=O)N(C)C)cc1OCCCC(C)C [Compound C5INH-0538] | 79 |

tested on: not listed separately; assay: Kinetic solubility in PBS pH 7.4, HPLC-UV (Example 21, Table 27); format: physicochemical; settings: phosphate buffered saline, aqueous buffer, kinetic from dmso stock, 0.5 M PBS, shaken minimum 24 h at approximately 25° C., HPLC-UV 270 nm
Procedure: Compounds were analyzed for kinetic solubility values using a standard kinetic solubility assay format. First, test compounds were dissolved in DMSO (Aldrich Chemical Co., Milwaukee, Wis., USA) at a concentration of 0.010 mol/L and used to prepare standard calibrators in DMSO solution. 500.0 μM, 250.0 μM, 125.0 μM, 62.5 μM, 31.2 μM, and 15.6 μM standards were prepared in a Greiner UV-Star clear V-bottom 96-well plate (Greiner-Bio One, Germany) for generating a standard curve. Using Alfa Aesar's Sodium phosphate, 0.2 M buffer solution, pH 7.4 (Alfa Aesar, Haverhill, Mass., USA), aqueous phosphate buffered saline (PBS) was prepared by diluting with Milli-Q water for a final concentration of 0.05 M. The pH of the solution was adjusted to 7.4±0.1 using 0.1 M hydrochloric acid (Fisher Scientific Waltham, Mass., USA) or 0.1 M aqueous sodium hydroxide (Fisher Scientific Waltham, Mass., USA).
10 μL of 0.010 mol/L DMSO test compound stock solutions were pipetted to separate 1.5 mL centrifuge tubes in triplicate. To these tubes, 190 μl of 0.05 M PBS was added. Each tube was gently vortexed for 5 sec. The tubes were shaken for a minimum of 24 h at approximately 25° C. After shaking, the solutions were transferred to 0.5 mL centrifuge filter tubes (MilliporeSigma, Burlington, Mass., USA) and centrifuged at 10,000 rpm for 5 min. After centrifugation, supernatants were collected and used for compound concentration analysis.
Compound concentrations in each solution were determined using high pressure liquid chromatography (HPLC) with ultraviolet (UV) detection and comparison with external standards. For HPLC, a Waters Acquity CSH Phenyl-Hexyl column (2.1 mm×50 mm, 1.7 μm) was used together with a generic gradient method on a Waters H-class system equipped with a diode array detector: Solvent A=0.1% formic acid in water, Solvent B=0.1% formic acid in acetonitrile (MilliporeSigma, Burlington, Mass., USA), flow=0.65 mL/min, (t=0 min: 95% A-5% B, t=4.75 min: 0% A-100% B, t=4.85 min: 0% A-100% B, t=4.86 min: 95% A-5% B, t=5 min: 95% A-5% B). UV quantifications were performed at 270 nm. Solution concentrations were calculated using Microsoft Excel.

| Compound | solubility kinetic [µM] |
| --- | --- |
| COc1cc(CC(=O)N2CCN(C)CC2)ccc1CN1C(=O)N(c2ccc(OC)c(OCCCC3CC3)c2)CC[C@@H]1C [SC0137] | 275 (≈ 159 µg/mL) |
| CCCCCOc1cc(N2CC[C@@H](C)N(Cc3cccc4[nH]cc(Cl)c34)C2=O)ccc1OC [SC0167] | < 10 |
| CCCCCOc1cc(N2CC(C(N)=O)CN(Cc3ccc(CC(=O)N(C)C)cc3OC)C2=O)ccc1OC (stereo not drawn) [SC0204] | 465 (≈ 251 µg/mL) |
| CCCCCOc1cc(N2CC[C@H](C)N(Cc3ccnc4c3c(Cl)cn4CC(=O)N3CCO[C@H](COC)C3)C2=O)ccc1OC [SC0127] | < 10 |
| COc1cc(CC(=O)N2CCNC(=O)C2)ccc1CN1CC(C)CN(c2ccc(OC)c(OCCCC3CC3)c2)C1=O (stereo not drawn) [SC0158] | 16 (≈ 9.26 µg/mL) |
| COc1cc(CCN2CCS(=O)(=O)CC2)ccc1CN1C(=O)N(c2ccc(OC)c(OCCCC3CC3)c2)CC[C@@H]1C [SC0162] | < 10 |

molecular target: T1, Human C5; assay: Red blood cell (RBC) hemolysis assay, luminescent (Example 28, Table 32); format: cell-based; settings: sheep EA cells, 1.5% C5-depleted human serum, 0.5 nM human C5, 1 hour at 37° C., luminescence (Table 32)

| Compound | IC50 [nM] |
| --- | --- |
| COc1cc(CC(=O)N2CCN(C)CC2)ccc1CN1C(=O)N(c2ccc(OC)c(OCCCC3CC3)c2)CC[C@@H]1C [SC0137] | 1.8 |
| CCCCCOc1cc(N2CC[C@@H](C)N(Cc3cccc4[nH]cc(Cl)c34)C2=O)ccc1OC [SC0167] | 3.2 |
| CCCCCOc1cc(N2CC(C(N)=O)CN(Cc3ccc(CC(=O)N(C)C)cc3OC)C2=O)ccc1OC (stereo not drawn) [SC0204] | 10.9 |
| CCCCCOc1cc(N2CC[C@H](C)N(Cc3ccnc4c3c(Cl)cn4CC(=O)N3CCO[C@H](COC)C3)C2=O)ccc1OC [SC0127] | 1.7 |
| COc1cc(CC(=O)N2CCNC(=O)C2)ccc1CN1CC(C)CN(c2ccc(OC)c(OCCCC3CC3)c2)C1=O (stereo not drawn) [SC0158] | 2.7 |
| COc1cc(CCN2CCS(=O)(=O)CC2)ccc1CN1C(=O)N(c2ccc(OC)c(OCCCC3CC3)c2)CC[C@@H]1C [SC0162] | 2.8 |
| CCCCCOc1cc(N2CC[C@@H](C)N(Cc3cccc4c3ccn4S(=O)(=O)c3ccc(C)cc3)C2=O)ccc1OC [SC0230] | 703 |
| COc1cc(CC(=O)N[C@H]2CN(C(=O)OC(C)(C)C)C[C@H]2F)ccc1CN1C(=O)N(c2ccc(OC)c(OCCCC3CC3)c2)CC[C@@H]1C [SC0160] | 2.7 |
| CCCCCOc1cc(N2CC[C@H](C)N(Cc3ccnc4c3c(Cl)cn4CC(=O)N[C@H]3CCNC3)C2=O)ccc1OC [SC0143] | 2.1 |
| CCCCCOc1cc(N2C[C@H](C)CN(Cc3ccc(CC(=O)N(C)C)cc3OC)C2=O)ccc1OC [SC0209] | 12.6 |
| CCCCCOc1cc(N2CC[C@@H](C)N(Cc3cccc4c3ccn4CC(=O)OCC)C2=O)ccc1OC [SC0211] | 15.6 |
| CCCCCOc1cc(N2CC[C@H](C)N(Cc3cccc4c3c(Cl)c(C)n4CC(=O)N(C)C)C2=O)ccc1OC [SC0132] | 1.7 |
| COc1cc(CC(=O)N(C)C)ccc1CN1CC(C)CN(c2ccc(OC)c(OCCCC3CC3)c2)C1=O (stereo not drawn) [SC0194] | 8.5 |
| CCCCCOc1cc(N2CC(CO)CN(Cc3ccc(C#N)cc3OC)C2=O)ccc1OC (stereo not drawn) [SC0224] | 98.5 |
| CCCCCOc1cc(N2CC(COCc3ccccc3)CN(Cc3ccc(Br)cc3OC)C2=O)ccc1OC (stereo not drawn) [SC0232] | 3120 |
| CCCCCOc1cc(N2CC(C)CN(Cc3ccc(C#N)cc3OC)C2=O)ccc1OC (stereo not drawn) [SC0228] | 211 |
| COc1cc(CC(=O)O)ccc1CN1C(=O)N(c2ccc(OC)c(OCCCC3CC3)c2)CC[C@@H]1C [SC0192] | 7.8 |
| CCCCCOc1cc(N2C[C@H](C(=O)NC)CN(Cc3cc(F)ccc3OC)C2=O)ccc1OC [SC0217] | 25.3 |
| COc1cc(CC(=O)N[C@@H]2CNC[C@@H]2F)ccc1CN1C(=O)N(c2ccc(OC)c(OCCCC3CC3)c2)CC[C@@H]1C [SC0130] | 1.7 |
| COc1cc(CC(=O)N2CCCC2)ccc1CN1CC(C)CN(c2ccc(OC)c(OCCCC3CC3)c2)C1=O (stereo not drawn) [SC0191] | 7.3 |
| COc1cc(CC(=O)N2CC[C@@H](N(C)C)C2)ccc1CN1C(=O)N(c2ccc(OC)c(OCCCC3CC3)c2)CC[C@@H]1C [SC0140] | 2.1 |
| COc1cc(CC(=O)N2CCOC(CN(C)C)C2)ccc1CN1C(=O)N(c2ccc(OC)c(OCCCC3CC3)c2)CC[C@@H]1C (stereo partly drawn) [SC0142] | 2.1 |
| CCCCCOc1cc(N2CC(C(N)=O)CN(Cc3ccc(CNC(C)=O)cc3OC)C2=O)ccc1OC (stereo not drawn) [SC0199] | 9.8 |
| COc1cc(CC(=O)N(C)[C@H]2CCN(C(=O)OC(C)(C)C)C2)ccc1CN1C(=O)N(c2ccc(OC)c(OCCCC3CC3)c2)CC[C@@H]1C [SC0188] | 6.4 |
| CCCCCOc1cc(N2CC(C)(C)CN(Cc3ccc(CC(=O)N(C)C)cc3OC)C2=O)ccc1OC [SC0220] | 42.1 |

| Compound | IC50 [nM] |
| --- | --- |
| CCCCCOc1cc(N2CC[C@H](C)N(Cc3ccnc4c3c(Cl)cn4CC(=O)N3CC(O)(C(F)(F)F)C3)C2=O)ccc1OC [SC0133] | 1.7 |
| CCCCCOc1cc(N2CC(C)CN(Cc3ccc(CNC(=O)OC)cc3OC)C2=O)ccc1OC (stereo not drawn) [SC0200] | 9.9 |
| CCCCCOc1cc(N2C[C@H](CO)CN(Cc3ccc(CC(=O)N(C)C)cc3OC)C2=O)ccc1OC [SC0176] | 4.5 |
| CCN1CC[C@H](NC(=O)Cc2ccc(CN3C(=O)N(c4ccc(OC)c(OCCCC5CC5)c4)CC[C@@H]3C)c(OC)c2)C1 [SC0141] | 2.1 |
| CCCCCOc1cc(N2CC[C@H](C)N(Cc3ccnc4c3c(Cl)cn4CCOCCOC)C2=O)ccc1OC [SC0150] | 2.2 |
| COc1cc(CC(=O)N(C)[C@@H]2CCN(C(=O)OC(C)(C)C)C2)ccc1CN1C(=O)N(c2ccc(OC)c(OCCCC3CC3)c2)CC[C@@H]1C [SC0202] | 10.1 |
| CCCCCOc1cc(N2C[C@H](C)CN(Cc3ccc(CC(=O)N4CCOCC4)cc3OC)C2=O)ccc1OC [SC0193] | 8.3 |
| CCCCCOc1cc(N2C[C@@H](C)CN(Cc3ccc(CC(=O)N4CCCC4)cc3OC)C2=O)ccc1OC [SC0212] | 16.5 |
| CCCCCOc1cc(N2CC(CO)CN(Cc3ccc(CC(=O)O)cc3OC)C2=O)ccc1OC (stereo not drawn) [SC0222] | 74.1 |
| CCCCCOc1cc(N2C[C@@H](CO)CN(Cc3ccc(CC(=O)N(C)C)cc3OC)C2=O)ccc1OC [SC0206] | 11.7 |
| COc1cc(CCN2CC3(COC3)C2)ccc1CN1C(=O)N(c2ccc(OC)c(OCCCC3CC3)c2)CC[C@@H]1C [SC0196] | 8.6 |
| COc1cc(CC(=O)O)ccc1CN1CC(C)CN(c2ccc(OC)c(OCCCC3CC3)c2)C1=O (stereo not drawn) [SC0221] | 54.4 |
| CCCCCOc1cc(N2CC[C@H](C)N(Cc3ccnc4c3c(Cl)cn4CC(=O)N3CC[C@H](N(C)C)C3)C2=O)ccc1OC [SC0129] | 1.7 |
| COc1cc(CC(=O)N(C)[C@@H]2CCNC2)ccc1CN1C(=O)N(c2ccc(OC)c(OCCCC3CC3)c2)CC[C@@H]1C [SC0121] | 1.5 |
| CCCCCOc1cc(N2C[C@@H](C(N)=O)CN(Cc3cc(F)ccc3OC)C2=O)ccc1OC [SC0213] | 18.2 |
| CCCCCOc1cc(N2CC[C@H](C)N(Cc3ccc(CCO)cc3OC)C2=O)ccc1OC [SC0197] | 9.1 |
| COc1ccc(N2CC[C@H](C)N(Cc3cccc4c3c(Cl)cn4CC(=O)N(C)C)C2=O)cc1OCCCCC1CC1 [SC0145] | 2.1 |
| CCCCCOc1cc(N2C[C@@H](C)CN(Cc3ccc(CC(=O)N(C)C)cc3OC)C2=O)ccc1OC [SC0210] | 15.1 |
| CCCCCOc1cc(N2CC[C@H](C)N(Cc3ccnc4c3c(Cl)cn4CC(=O)N(C)C)C2=O)c(F)cc1OC [SC0175] | 4.4 |
| COc1cc(CC(=O)N[C@H]2CNC[C@H]2F)ccc1CN1C(=O)N(c2ccc(OC)c(OCCCC3CC3)c2)CC[C@@H]1C [SC0152] | 2.3 |
| COc1cc(CC(=O)N(C)C)ccc1CN1C(=O)N(c2ccc(OC)c(OCCCC3CC3)c2)CC[C@@H]1C [SC0135] | 1.8 |
| CCCCCOc1cc(N2CC[C@H](C)N(Cc3cccc(OC)c3O)C2=O)ccc1OC [SC0195] | 8.5 |
| COc1cc(CC(=O)N[C@@H]2CCN(C(=O)OC(C)(C)C)C2)ccc1CN1C(=O)N(c2ccc(OC)c(OCCCC3CC3)c2)CC[C@@H]1C [SC0187] | 6.1 |
| CCCCCOc1cc(N2CC[C@H](C)N(Cc3ccnc4[nH]ccc34)C2=O)ccc1OC [SC0219] | 40 |
| COc1ccc(N2CC[C@H](C)N(Cc3cccc4c3ccn4CC(=O)N(C)C)C2=O)cc1OCCCC1CCC1 [SC0205] | 11.4 |
